This is an account of results in US12337003B2, “Pharmaceutical compositions for combination therapy” (Intercept Pharmaceuticals, Inc., priority 2015, dated 2025).

Data set [1] relates to intestinal tissue of two animal models of inflammatory bowel disease (DSS and trinitrobenzene sulfonic acid). Particulars: DSS and trinitrobenzene sulfonic acid models (Gadaleta 2011); cited from earlier work.
Data set [2] concerns patients with non-cirrhotic, non-alcoholic steatohepatitis. The data set can be described thus: Subanalysis of clinical trial: concomitant statin use and LDL cholesterol. Format: in vivo, humans. Particulars: patients on statins at baseline; up to Week 72. The procedure:
A subanalysis of the data obtained in Example 9 was performed to assess the effect of statins on low density lipoprotein cholesterol (LDL-C) levels. The aims of these secondary analyses were to determine the effect of OCA versus placebo in the subgroup of patients with more severe NASH and to assess the effects of concomitant statin use on serum LDL cholesterol.
The following calculations were performed for OCA treated subjects in Groups A, B, and C. • Mean and median characteristics listed below will be evaluated at baseline and at Week 72. • Laboratory values: LDL-C, high density lipoprotein cholesterol (HDL-C), alanine and aspartate aminotransferase, gamma glutamyl transferase • Age • Gender: percentage male, percentage female • Percentage diabetic • Histology: steatosis, ballooning, inflammation, fibrosis • Mean and median percentage change at Week 72 from baseline of the above characteristics will be evaluated. Results

For data set [3], the system named is leukocyte extravasation signaling. The data set is described as follows: Hepatic gene expression profiling (RNA sequencing, pathway analysis) in APOE*3Leiden.CETP mice. Format: in vivo. How it is done:
This experiment was performed to evaluate the effects of OCA and fenofibrate, alone or in combination, on the development of diet induced NASH and liver fibrosis in APOE*3Leiden.CETP transgenic mice. Hepatic gene expression profiling and subsequent pathway analysis were performed to determine whether the combination regulates novel genes not regulated by either monotherapy treatment, and/or more strongly regulates genes also impacted by the monotherapy.
Mice were fed a high fat chow (HFC) diet for […]. After 15 weeks on the HFC diet, HFC mice were matched into 7 groups based on age, body weight, plasma cholesterol and triglycerides after 4 h fasting. Mice were treated with of OCA and fenofibrate, alone or in combination beginning at week 15 and sacrificed at week 25 in an unfasted state. One week before sacrifice, mice were labeled with D20, by i.p. injection of a bolus of D20 and subsequent addition of 4% D20 to the drinking water. Plasma (EDTA) was obtained by heart puncture and stored at −70° C. The liver was weighed and 4 pieces of liver were isolated: 1 piece (medial lobe) was fixed in 10% formalin (for NASH and fibrosis histology) and 3 pieces (sinister lobe) were snap-frozen in liquid N2 and stored individually at −70° C.
Nucleic acid extraction was performed as described previously in detail (Verschuren et al., 2014). Briefly, total RNA was extracted from individual liver samples using glass beads and RNAzol (Campro Scientific, Veenendaal, The Netherlands). RNA concentration and quality was determined using the Fragment Analyzer (Advanced Analytical Technologies, USA) and the RNA 6000 Nano Lab-on-a-Chip kit and a Bioanalyzer 2100 (Agilent Technologies, Amstelveen, The Netherlands). All samples met the quality requirements and were used in the RNA sequencing procedure.
The NEBNext Ultra Directional RNA library Prep Kit for Illumina was used to process the samples. The sample preparation was performed according to the protocol “NEBNext Ultra Directional RNA Library Prep Kit for Illumina” (NEB #E7420S/L). Briefly, mRNA was isolated from total RNA using oligo-dT magnetic beads. After fragmentation of the mRNA, a cDNA synthesis was performed. This was used for ligation of sequencing adapters and PCR amplification of the resulting product. The quality and yield after sample preparation was measured with the Fragment Analyzer (Advanced Analytical Technologies, USA). The size of the resulting products was consistent with the expected size distribution (a broad peak between 300-500 bp).
Clustering and DNA sequencing using the Illumina […] was performed according manufacturer's protocols. Data was generated using single-end read sequencing protocol obtaining approx. 15 million reads per sample and 75 bp per read. Image analysis, base calling, and quality check was performed with the Illumina data analysis pipeline RTA v2.4.11 to generate the raw data (*.fastq-files).
The reads were mapped to the reference sequence Mus musculus GRCm38.p3 using a short read aligner based on Burrows-Wheeler Transform. The default mismatch rate of 2% (3 mismatches in a read of 150 bases) was used. Based on the mapped read locations in the alignment files (*.bam-files) the frequency of how often a read was mapped on a transcript was determined. The counts were saved to count-files, which served as input for downstream mRNA-seq differential expression analysis. The read counts were loaded into the DESeq package, a statistical package within the R platform. […]

In data set [4] the test system is rat aortic smooth muscle cell. The note with it: Li 2007; cited from earlier work.

For the compound `CC[C@H]1[C@@H](O)[C@@H]2[C@H](CC[C@]3(C)[C@@H]([C@H](C)CCC(=O)O)CC[C@@H]23)[C@@]2(C)CC[C@@H](O)C[C@@H]12` [OCA, 3α,7α-dihydroxy-6α-ethyl-5β-cholan-24-oic acid], the “inflammatory infiltrates in intestinal tissue” value in data set [1] was “inhibition of inflammatory infiltrates”. For the same compound, the “LDL cholesterol during OCA treatment” value in data set [2] is given as “increased”. Also, in data set [3] (Venn diagram, OCA 10 mg/kg, fenofibrate 10 mg/kg, combination), the “number of uniquely regulated genes” value was 109. For the same compound, the “enrichment analysis of canonical (inflammatory) pathways” value in data set [3] (liver mRNA, OCA 10 mg/kg and/or low dose fenofibrate vs HFC) is listed as “regulated several inflammatory processes”. The “regulation of genes of leukocyte extravasation signaling (leukocyte and endothelial cells)” value in data set [3] (liver mRNA, OCA and/or low dose fenofibrate, relative to vehicle group) is on record as “downregulates numerous genes”. In data set [4], the “pharmacologically-induced rat aortic smooth muscle cell migration” value is on record as “abolished” and the “production of iNOS or COX-2 induced by IL-1β” value was “inhibited”.
